Experimental data published in patent US6372279B1, “Sweetener composition” (Ajinomoto Co., Inc., priority 1998, dated 2002).
One block for each compound: values may come before it.

How the values were obtained:
[1] = in terms of weight ratio; cited from earlier work
[2] = Dissolution time in 900 ml water (20° C.), 1-L elution tester, Japanese Pharmacopoeia Paddle method, 100 rpm; format: physicochemical
Protocol: A predetermined amount of the sample was introduced into 900 ml water (20° C.) in a 1-L elution tester (the Japanese Pharmacopoeia, Paddle method, 100 rpm) and its dissolution time was measured (end point was visually confirmed).
Specifically, 1 g of the sample taken from each mixture consisting of NM C-type crystals (average particle size (diameter) of about 100 μm) and ACE-K raw powder (average particle size of about 20 μm) at a predetermined ratio (ACE-K content (% by weight)) shown in Table 1 below, was weighed and measured for its dissolution time. For comparison, 1.00 g, 0.90 g, 0.80 g, 0.50 g, 0.10 g, and 0.03 g samples were taken from said NM crystals and their dissolution times were determined in the same manner.
The dissolution times of mixtures of NM and ACE-K were measured in the same manner as in Experimental Example 1 except that NM A-type crystals were used in place of NM C-type crystals.
The sample amount for each mixture and the amount of NM alone (NM A-type crystals) were the same as that in Example 1.
The same NM crystals as those in Experimental Example 1 were used as NM, and the same ACE-K powder (average particle size (diameter) of about 20 μm) as that in Experimental Example 1 was used as ACE-K, and the dissolution times thereof were determined in the same manner as in Experimental Example 1.
That is, 0.5 g each of both of them was weighed (1.0 g in total) and introduced simultaneously without being previously mixed, into the elution tester (separate addition). For reference, the dissolution time of 0.5 g NM C-type crystals alone (Experimental Example 1) is also shown together in the table.

[3] = Quality of sweetness compared to sucrose (early taste, later taste, astringent taste); conditions: found by the present inventors
Source text: It is reported that the sweetness strength or sweetening potency of the synthetic high-potency sweetener, NM, is about 10,000 times that of sucrose in terms of weight ratio (Japanese Patent Kohyou Publication JP-A-8-503206). […] Further, NM has a strong astringent taste. Accordingly, the balance of the quality of sweetness properties for NM is poor when compared to sucrose. Sucrose is generally regarded as the standard for evaluating the properties or characteristics of the quality of sweetness.

SMILES: CC1=CC(=O)[N-]S(=O)(=O)O1.[K+] [ACE-K, Acesulfame K]
Sweetness strength or sweetening potency [1]: about 200 times that of sucrose

Dissolution time ([2]; NM A-type crystals alone, 0.80 g in 900 ml water, 20° C.): 38 min
SMILES: COC(=O)[C@H](Cc1ccccc1)NC(=O)[C@H](CC(=O)O)NCCC(C)(C)C [NM A-type crystals, N-{N-(3,3-dimethylbutyl)-L-α-aspartyl}-L-phenylalanine 1-methyl ester, reference compound]

Dissolution time ([2]; NM C-type crystals alone, 0.80 g in 900 ml water, 20° C.): 58 min
SMILES: COC(=O)[C@H](Cc1ccccc1)NC(=O)[C@H](CC(=O)O)NCCC(C)(C)C [NM C-type crystals, N-{N-(3,3-dimethylbutyl)-L-α-aspartyl}-L-phenylalanine 1-methyl ester]

Dissolution time ([2]; 0.51 g of NM alone (amount of equal sweetness to 1 g mixture containing 50% ACE-K)): about 60 minutes
SMILES: COC(=O)[C@H](Cc1ccccc1)NC(=O)[C@H](CC(=O)O)NCCC(C)(C)C [NM, N-{N-(3,3-dimethylbutyl)-L-α-aspartyl}-L-phenylalanine 1-methyl ester]
Sweetness strength or sweetening potency [1]: about 10,000 times that of sucrose
Early taste ([3]; compared to sucrose): extremely weak
Later taste ([3]; compared to sucrose): extremely strong
Astringent taste [3]: strong
